According to ChEMBL document CHEMBL1201862, “PubChem BioAssay data set” (2004):
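Tested at 5 concentrations; 48 h exposure; 96-well plates; endpoints linearly interpolated, else capped at highest concentration. Here, GI50 denotes the concentration required for 50% inhibition of growth.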 Calls of active or inactive are those of the source. Cut-off read from the data, not from the text of the source: active = GI50 up to about 1.1 µM and inactive = higher.

Assays:
Assay in all cases: DTP human tumour cell line panel, 48 h
HOP-92 = system: HOP-92
SF-295 = system: SF-295
SW-620 = system: SW-620
UACC-62 = system: UACC-62
KM12 = system: KM12
MOLT-4 = system: MOLT-4
SK-OV-3 = system: SK-OV-3
HCC 2998 = system: HCC 2998
MCF7 = system: MCF7
LOX IMVI = system: LOX IMVI
DMS-114 = system: DMS-114
SF-539 = system: SF-539
A549 = system: A549
OVCAR-4 = system: OVCAR-4
RXF 393 = system: RXF 393
A498 = system: A498
SK-MEL-28 = system: SK-MEL-28
RPMI-8226 = system: RPMI-8226
NCI/ADR-RES = system: NCI/ADR-RES
OVCAR-8 = system: OVCAR-8

SMILES	GI50 (HOP-92)	GI50 (SF-295)	GI50 (SW-620)	GI50 (UACC-62)	GI50 (KM12)	GI50 (MOLT-4)	GI50 (SK-OV-3)	GI50 (HCC 2998)	GI50 (MCF7)	GI50 (LOX IMVI)	GI50 (DMS-114)	GI50 (SF-539)	GI50 (A549)	GI50 (OVCAR-4)	GI50 (RXF 393)	GI50 (A498)	GI50 (SK-MEL-28)	GI50 (RPMI-8226)	GI50 (NCI/ADR-RES)	GI50 (OVCAR-8)
CC(C)Cc1ccc(C(C)C(=O)N2CCN(/C=C/c3ccccc3)CC2)cc1 (stereo not given)	13.1 µM (inactive)	15.9 µM (inactive)	15.6 µM (inactive)	13.4 µM (inactive)	15.5 µM (inactive)	6.15 µM (inactive)	16.6 µM (inactive)	17.9 µM (inactive)	16 µM (inactive)	18.7 µM (inactive)	10.8 µM (inactive)	15.2 µM (inactive)	11.5 µM (inactive)	11.9 µM (inactive)	14.1 µM (inactive)	16.4 µM (inactive)	17.7 µM (inactive)	5.04 µM (inactive)	13.1 µM (inactive)	14.5 µM (inactive)
O=C(O)C(Cl)(Cl)Cl	> 100 µM (inactive)	> 100 µM (inactive)	> 100 µM (inactive)		> 100 µM (inactive)	> 100 µM (inactive)	> 100 µM (inactive)	> 100 µM (inactive)		> 100 µM (inactive)	> 100 µM (inactive)	> 100 µM (inactive)	> 100 µM (inactive)	> 100 µM (inactive)	> 100 µM (inactive)		> 100 µM (inactive)	> 100 µM (inactive)		> 100 µM (inactive)
CCOc1ccc(C2=C(Cl)c3cc(OC)c(OC)cc3C2Cl)cc1 (stereo not given)	25.4 µM (inactive)	35 µM (inactive)	29.2 µM (inactive)	26.2 µM (inactive)		19.5 µM (inactive)	> 100 µM (inactive)			19.5 µM (inactive)	18.6 µM (inactive)	29.8 µM (inactive)				19.8 µM (inactive)	87.5 µM (inactive)	21.3 µM (inactive)		36.4 µM (inactive)
CC(C)(O)/C1=C/C=C/CCCCCCCCCC1	81.3 µM (inactive)	> 100 µM (inactive)	> 100 µM (inactive)	90.2 µM (inactive)	> 100 µM (inactive)	28.1 µM (inactive)	> 100 µM (inactive)	> 100 µM (inactive)	> 100 µM (inactive)	> 100 µM (inactive)						> 100 µM (inactive)	> 100 µM (inactive)	33.3 µM (inactive)	> 100 µM (inactive)	> 100 µM (inactive)
CC(C)(C)OC(=O)NCCc1ccc(N)cc1		49.2 µM (inactive)	> 100 µM (inactive)	> 100 µM (inactive)		37.2 µM (inactive)		> 100 µM (inactive)	> 100 µM (inactive)	> 100 µM (inactive)			> 100 µM (inactive)	> 100 µM (inactive)			> 100 µM (inactive)	58.6 µM (inactive)	32.4 µM (inactive)	> 100 µM (inactive)
COC(=O)c1ccc(/N=N/N(C)COc2ccc(Br)cc2)cc1	> 53 µM (inactive)	> 60.8 µM (inactive)	> 90.2 µM (inactive)	60 µM (inactive)	75.5 µM (inactive)	26.6 µM (inactive)	> 100 µM (inactive)	31.7 µM (inactive)	> 58.3 µM (inactive)	49.2 µM (inactive)	55.7 µM (inactive)	> 100 µM (inactive)	66.7 µM (inactive)	54.2 µM (inactive)	80.4 µM (inactive)	37.7 µM (inactive)	> 100 µM (inactive)	24.5 µM (inactive)	> 100 µM (inactive)	> 81.5 µM (inactive)
CC12CCC(C(=O)N3CC=CCC3)(OC1=O)C2(C)C (stereo not given)	> 100 µM (inactive)	> 100 µM (inactive)	> 100 µM (inactive)	> 100 µM (inactive)	> 100 µM (inactive)	> 100 µM (inactive)	> 100 µM (inactive)	> 69 µM (inactive)	> 100 µM (inactive)	> 100 µM (inactive)	> 100 µM (inactive)	> 100 µM (inactive)	> 100 µM (inactive)	> 100 µM (inactive)	> 100 µM (inactive)	> 100 µM (inactive)	> 100 µM (inactive)	> 100 µM (inactive)	> 100 µM (inactive)	> 100 µM (inactive)
CCCC(=O)OCC1OC(n2ccc(N)nc2=O)C(OC(=O)CCC)C1OC(=O)CCC (stereo not given)	> 45.1 µM (inactive)	> 73.5 µM (inactive)	> 100 µM (inactive)	26.4 µM (inactive)	> 100 µM (inactive)	0.33 µM (active)	> 100 µM (inactive)	> 100 µM (inactive)	8.09 µM (inactive)	3.03 µM (inactive)	> 100 µM (inactive)	77.3 µM (inactive)	8.05 µM (inactive)	> 100 µM (inactive)	> 58.7 µM (inactive)	5.77 µM (inactive)	15.1 µM (inactive)	> 100 µM (inactive)	68.9 µM (inactive)	6.1 µM (inactive)
CC(C)Cc1cccc(C(C)C)c1NC(=O)CCC(=O)N/N=C1\C(=N/NC(=O)CCC(=O)Nc2c(C(C)C)cccc2C(C)C)C(c2ccc3c(c2)OCO3)Oc2ccccc21 (stereo not given)	> 100 µM (inactive)	48 µM (inactive)	46 µM (inactive)	78.3 µM (inactive)	> 100 µM (inactive)	57.3 µM (inactive)	> 100 µM (inactive)	> 100 µM (inactive)		44.5 µM (inactive)	42.6 µM (inactive)	97.7 µM (inactive)	65.3 µM (inactive)	74.1 µM (inactive)	34.9 µM (inactive)	> 100 µM (inactive)	> 100 µM (inactive)	59.2 µM (inactive)		69.3 µM (inactive)
